“And” between values parts separate entries of the source, which are not always exact repeats. Equal values may be shown once.
Test system: RPMI-8226 cells
Experiment: Gene expression profiling, NanoString nCounter PanCancer Pathways Panel, ROSALIND analysis
Format: cell-based, human
Procedure: RPMI-8226 cells were treated with vehicle or TCH-165 (10 μM) for 4 h. Total RNA was obtained using the mirVana miRNA Isolation Kit, with phenol (Thermofisher Scientific; AM1560; Waltham, MA, USA). Total RNA was quantified by Qubit (Thermofisher Scientific; Q32855; Waltham, MA, USA). and gene expression was evaluated against the nCounter® PanCancer Pathways Panel^TM according to the standard NanoString protocol.
Data were analyzed by ROSALIND® [36] with a hyperscale architecture developed by ROSALIND, Inc. (San Diego, CA, USA). Normalization, fold changes and p-values were calculated using criteria provided by NanoString. ROSALIND follows the nCounter® Advanced Analysis protocol of dividing counts within a lane by the geometric mean of the normalizer probes from the same lane. Housekeeping probes to be used for normalization are selected based on the geNorm algorithm, as implemented in the NormqPCR R library. Fold changes and p-values are calculated using the fast method as described in the nCounter Advanced Analysis 2.0 User Manual. The p-value adjustment is performed using the Benjamini–Hochberg method of estimating false discovery rates (FDR). Clustering of genes for the final heatmap of differentially expressed genes was done using the PAM (Partitioning Around Medoids) method using the fpc R library. Hypergeometric distribution was used to analyze the enrichment of pathways, gene ontology, domain structure and other ontologies. The topGO R library was used to determine local similarities and dependencies between GO terms in order to perform Elim pruning correction. Several database sources were referenced for enrichment analysis, including Interpro [40], NCBI [41], MSigDB [42, 43], REACTOME [44], WikiPathways. Enrichment was calculated relative to a set of background genes relevant to the experiment.

[1] = RPMI-8226 cells, TCH-165 treatment samples 1-3

CCOC(=O)[C@]1(c2ccccc2)N=C(c2ccc(OC)cc2)N(Cc2ccccc2)[C@@H]1c1ccc(NCc2ccccc2)cc1 [TCH-165]
VEGFC normalized gene expression (RPMI-8226, TCH-165 samples 1-3): 4.571 and 4.699 and 4.731 | VHL normalized gene expression (RPMI-8226, TCH-165 samples 1-3): 9.098 and 9.164 and 9.268 | WEE1 normalized gene expression (RPMI-8226, TCH-165 samples 1-3): 9.934 and 9.744 and 9.778 | WHSC1L1 normalized gene expression (RPMI-8226, TCH-165 samples 1-3): 9.091 and 9.1675 and 9.063 | WHSC1 normalized gene expression (RPMI-8226, TCH-165 samples 1-3): 9.949 and 9.835 and 9.719 | WIF1 normalized gene expression (RPMI-8226, TCH-165 samples 1-3): 5.758 and 4.855 and 4.805 | WNT2B normalized gene expression (RPMI-8226, TCH-165 samples 1-3): 5.308 and 4.427 and 4.528 | WNT2 normalized gene expression (RPMI-8226, TCH-165 samples 1-3): 5.827 and 5.242 and 5.592 | WNT3 normalized gene expression (RPMI-8226, TCH-165 samples 1-3): 5.044 and 4.7789 and 4.9095 | WNT4 normalized gene expression (RPMI-8226, TCH-165 samples 1-3): 4.488 and 3.817 and 3.5707 | WNT5A normalized gene expression (RPMI-8226, TCH-165 samples 1-3): 6.308 and 6.154 and 6.184 | WNT6 normalized gene expression (RPMI-8226, TCH-165 samples 1-3): 4.924 and 4.739 and 4.437 | WNT7A normalized gene expression (RPMI-8226, TCH-165 samples 1-3): 5.208 and 4.962 and 4.9095 | WNT7B normalized gene expression (RPMI-8226, TCH-165 samples 1-3): 3.723 and 3.27 and 3.805 | WNT10B normalized gene expression (RPMI-8226, TCH-165 samples 1-3): 5.259 and 5.27 and 5.211 | WNT11 normalized gene expression (RPMI-8226, TCH-165 samples 1-3): 4.308 and 4.154 and 3.876 | WNT16 normalized gene expression (RPMI-8226, TCH-165 samples 1-3): 4.986 and 4.27 and 4.693 | WT1 normalized gene expression (RPMI-8226, TCH-165 samples 1-3): 4.571 and 4.476 and 4.341 | XPA normalized gene expression (RPMI-8226, TCH-165 samples 1-3): 8.195 and 7.97 and 8.109 | XRCC4 normalized gene expression (RPMI-8226, TCH-165 samples 1-3): 8.283 and 8.506 and 8.426 | ZAK normalized gene expression (RPMI-8226, TCH-165 samples 1-3): 4.793 and 4.2133 and 4.238 | ZBTB16 normalized gene expression (RPMI-8226, TCH-165 samples 1-3): 2.986 and 2.891 and 3.0682 | ZBTB32 normalized gene expression (RPMI-8226, TCH-165 samples 1-3): 4.101 and 4.093 and 3.731 | ZIC2 normalized gene expression (RPMI-8226, TCH-165 samples 1-3): 4.86 and 4.154 and 4.291 | Normalized gene expression, ACVR1C [1]: 4.723 and 4.614 and 4.693 | Normalized gene expression, ALKBH2 [1]: 6.955 and 6.808 and 6.991 | Normalized gene expression, ALKBH3 [1]: 8.467 and 8.37 and 8.417 | Normalized gene expression, AMER1 [1]: 6.704 and 6.569 and 6.56 | Normalized gene expression, APH1B [1]: 6.101 and 5.7789 and 5.991 | Normalized gene expression, ARID1B [1]: 9.42 and 9.304 and 9.241 | Normalized gene expression, ARID2 [1]: 9.514 and 9.28 and 9.287 | Normalized gene expression, ASXL1 [1]: 9.934 and 9.758 and 9.627 | Normalized gene expression, BIRC7 [1]: 4.401 and 4.2133 and 4.0682 | Normalized gene expression, BMP8A [1]: 6.156 and 5.759 and 5.787 | Normalized gene expression, BRIP1 [1]: 8.576 and 8.341 and 8.466 | Normalized gene expression, CACNA2D3 [1]: 2.986 and 2.154 and 2.483 | Normalized gene expression, CACNA2D4 [1]: 4.793 and 4.739 and 4.291 | Normalized gene expression, CACNG6 [1]: 5.101 and 4.093 and 4.653 | Normalized gene expression, CALML6 [1]: 4.986 and 4.996 and 5.038 | Normalized gene expression, CARD11 [1]: 6.55 and 6.729 and 6.472 | Normalized gene expression, CASP12 [1]: 5.208 and 4.891 and 4.653 | Normalized gene expression, CCNB3 [1]: 2.401 and 3.3768 and 3.184 | Normalized gene expression, COL6A6 [1]: 3.986 and 4.324 and 4.184 | Normalized gene expression, COL24A1 [1]: 5.488 and 5.2133 and 5.316 | Normalized gene expression, COL27A1 [1]: 4.986 and 5.154 and 5.098 | Normalized gene expression, CREB3L1 [1]: 3.86 and 3.657 and 3.39 | Normalized gene expression, CREB3L3 [1]: 2.723 and 2.891 and 2.943 | Normalized gene expression, CREB3L4 [1]: 7.001 and 6.678 and 6.702 | Normalized gene expression, CRLF2 [1]: 5.723 and 5.798 and 5.75 | Normalized gene expression, CXXC4 [1]: 6.156 and 6.2133 and 5.858 | Normalized gene expression, DTX3 [1]: 3.986 and 4.2133 and 4.238 | Normalized gene expression, FAAP24 [1]: 7.343 and 7.012 and 7.17 | Normalized gene expression, FBXW7 [1]: 6.571 and 6.488 and 6.528 | Normalized gene expression, GDF6 [1]: 4.101 and 4.657 and 4.0068 | Normalized gene expression, GNG12 [1]: 4.793 and 4.855 and 4.693 | Normalized gene expression, H3F3C [1]: 12.4579 and 12.5235 and 12.4804 | Normalized gene expression, HDAC10 [1]: 8.066 and 7.808 and 7.722 | Normalized gene expression, HDAC11 [1]: 5.156 and 4.927 and 5.291 | Normalized gene expression, HES5 [1]: 6.355 and 5.657 and 5.893 | Normalized gene expression, HHIP [1]: 3.986 and 3.739 and 3.653 | Normalized gene expression, IL22RA1 [1]: 5.156 and 5.0613 and 5.316 | Normalized gene expression, IL22RA2 [1]: 5.445 and 4.817 and 4.437 | Normalized gene expression, IL23R [1]: 4.986 and 4.614 and 4.291 | Normalized gene expression, KMT2C [1]: 9.426 and 9.461 and 9.455 | Normalized gene expression, LAMA1 [1]: 4.986 and 4.27 and 4.184 | Normalized gene expression, MAML2 [1]: 8.948 and 9.039 and 8.92 | Normalized gene expression, NFKBIZ [1]: 7.259 and 6.9093 and 6.832 | Normalized gene expression, NKD1 [1]: 5.445 and 5.3768 and 5.437 | Normalized gene expression, NSD1 [1]: 7.758 and 7.832 and 7.75 | Normalized gene expression, PAK7 [1]: 2.986 and 3.891 and 3.39 | Normalized gene expression, PDGFC [1]: 6.509 and 6.415 and 6.1271 | Normalized gene expression, PDGFD [1]: 4.401 and 4.27 and 4.0068 | Normalized gene expression, PHF6 [1]: 9.829 and 9.914 and 9.8 | Normalized gene expression, PLA2G4E [1]: 3.86 and 4.029 and 4.0682 | Normalized gene expression, PLA2G4F [1]: 4.208 and 4.154 and 3.483 | Normalized gene expression, POLD4 [1]: 8.314 and 8.1355 and 8.194 | Normalized gene expression, PRMT8 [1]: 4.308 and 4.476 and 4.341 | Normalized gene expression, PTCRA [1]: 3.986 and 4.3768 and 4.238 | Normalized gene expression, PTPN5 [1]: 4.571 and 4.476 and 4.39 | Normalized gene expression, SHC4 [1]: 5.571 and 4.891 and 5.0068 | Normalized gene expression, SOX17 [1]: 4.101 and 4.154 and 3.483 | Normalized gene expression, SPRY4 [1]: 5.044 and 5.093 and 5.366 | Normalized gene expression, SUV39H2 [1]: 8.912 and 8.7789 and 8.832 | Normalized gene expression, TBL1XR1 [1]: 13.2408 and 13.1822 and 13.1378 | Normalized gene expression, TCF7L1 [1]: 5.101 and 4.739 and 5.461 | Normalized gene expression, THEM4 [1]: 7.581 and 7.249 and 7.3536 | Normalized gene expression, TNN [1]: 4.986 and 4.7789 and 4.39 | Normalized gene expression, TRAF7 [1]: 10.2015 and 10.0643 and 10.0175 | Normalized gene expression, TSLP [1]: 4.571 and 4.699 and 4.769 | Normalized gene expression, WNT5B [1]: 5.208 and 5.093 and 5.238 | Normalized gene expression, WNT10A [1]: 5.924 and 6.045 and 6.17

From publication PMC9138505, “Small Molecule 20S Proteasome Enhancer Regulates MYC Protein Stability and Exhibits Antitumor Activity in Multiple Myeloma” (Biomedicines, 2022)
